This is an account of results in ChEMBL document CHEMBL5053556, “Design, Synthesis, and Biological Evaluation of a Novel Series of Teriflunomide Derivatives as Potent Human Dihydroorotate Dehydrogenase Inhibitors for Malignancy Treatment” (J Med Chem, 2021).

Series [1] deals with T1, Dihydroorotate dehydrogenase (quinone), mitochondrial (Homo sapiens, UniProt Q02127). To be noted: dose 100.0 nM, time 30.0 min.
Series [2] concerns the target T1, Dihydroorotate dehydrogenase (quinone), mitochondrial.
Description: Inhibition of human DHODH using dihydroorotate substrate preincubated for 30 mins followed by substrate addition by DCIP based microplate reader analysis
In series [3] the test system is Raji. Nature of the series: Antiproliferative activity against human Raji cells assessed as cell growth inhibition incubated for 96 hrs by MTT assay. Type of series: functional, cell-based.
Series [4] deals with L02. Put plainly: cells. Type of series: ADME, cell-based. To be noted: Homo sapiens, L02, 96 h.
Description: Cytotoxicity against human L02 cells assessed as cell growth inhibition incubated for 96 hrs by MTT assay
A short description of series [5]: physchem. To be noted: aqueous.
Description: Aqueous solubility of compound by UPLC method
A short description of series [6]: in vitro. To be noted: human, L02 cells and Raji cells.
Description: Selectivity index, ratio of IC50 for human L02 cells to IC50 for human Raji cells
Series [7] concerns HCT-116. Nature of the series: Antiproliferative activity against human HCT-116 cells assessed as cell growth inhibition incubated for 96 hrs by MTT assay. Type of series: functional, cell-based. Conditions: HCT-116, 96 h. On the technique in general: Tetrazolium dyes change colour on reduction, which living cells bring about.
Series [8] concerns A549. Nature of the series: Antiproliferative activity against human A549 cells assessed as cell growth inhibition incubated for 96 hrs by MTT assay. Type of series: functional, cell-based. To be noted: A549, 96 h.
For series [9], the system named is K562. Nature of the series: Antiproliferative activity against human K562 cells assessed as cell growth inhibition incubated for 96 hrs by MTT assay. In kind it is functional, cell-based. Conditions: K562, 96 h.
Series [10] relates to A-375. Put plainly: Antiproliferative activity against human A-375 cells assessed as cell growth inhibition incubated for 96 hrs by MTT assay. In kind it is functional, cell-based. Conditions: A-375, 96 h.
For series [11], the system named is SK-MEL-28. Nature of the series: Antiproliferative activity against human SK-MEL-28 cells assessed as cell growth inhibition incubated for 96 hrs by MTT assay. Type of series: functional, cell-based. To be noted: SK-MEL-28, 96 h.

Each structure is given as a SMILES string. In brackets after ≈: the same amount, converted by molar mass.

T1 sequence (Q02127 whole entry): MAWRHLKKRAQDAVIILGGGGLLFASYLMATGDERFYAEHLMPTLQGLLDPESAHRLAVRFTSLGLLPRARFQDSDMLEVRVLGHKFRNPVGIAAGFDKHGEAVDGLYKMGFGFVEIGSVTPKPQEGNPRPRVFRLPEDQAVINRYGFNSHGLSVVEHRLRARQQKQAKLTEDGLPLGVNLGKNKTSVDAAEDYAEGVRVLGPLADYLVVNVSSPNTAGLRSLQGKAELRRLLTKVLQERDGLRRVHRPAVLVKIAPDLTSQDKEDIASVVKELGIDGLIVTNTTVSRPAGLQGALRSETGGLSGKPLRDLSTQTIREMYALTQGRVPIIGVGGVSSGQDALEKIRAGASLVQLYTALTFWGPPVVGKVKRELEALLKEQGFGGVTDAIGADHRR

In general, inhibition refers to how much of the control response was suppressed. Low values mean a response near the control, high ones a response far below the control. `COc1ccccc1NC(=O)c1cc(F)c(NC(=O)/C(C#N)=C(/C)O)cc1OC(C)C` displayed an inhibition in series [1] of 5.3%.
On the same count and under the same terms, under `C/C(O)=C(\C#N)C(=O)Nc1ccc(C(=O)Nc2c(F)cccc2F)c(OC(C)C)c1` stands 53.4%.
Broadly, the IC50 is the midpoint of a concentration-inhibition curve. By solubility is commonly meant the dissolved amount per volume that the medium holds. Higher therefore signals much dissolved substance. Take `C/C(O)=C(\C#N)C(=O)Nc1cc(O[C@@H](C)C(F)(F)F)c(C(=O)Nc2c(Cl)cccc2Cl)cc1F`: the concentration for half-maximal inhibition (IC50) was 5.7 nM in [2], 32.1 nM in [3] and 452 nM in [4]. In series [1], this compound yielded an inhibition of 96.4%. The concentration in solution in series [5] (solubility) was 2400 µg/mL (≈ 4.61 mM). In addition, the selectivity ratio in series [6] is 14.1.
Take `COc1cccc(-c2cc(F)c(Nc3ncccc3C(=O)O)c(F)c2)c1` [ASLAN-003]: the IC50 in series [7] came to 5100 nM; in series [8] it was 900 nM; in [3], 300 nM; in series [9], 2700 nM; in series [10], 700 nM; in series [11], 1300 nM. The compound further had an IC50 in series [4] of 487 nM. In [1], this compound yielded an inhibition of 66.8%.
Take `COc1cc(NC(=O)/C(C#N)=C(/C)O)c(F)cc1C(=O)Nc1c(F)cccc1F`: in [1], the inhibition stood at 27.4%.
The same measure, in the same setting: under `CCOc1cc(NC(=O)/C(C#N)=C(/C)O)c(F)cc1C(=O)Nc1c(F)cccc1F` stands 40.2%; under `C/C(O)=C(\C#N)C(=O)Nc1cc(OC(C)C)c(C(=O)Nc2ccc(F)c(Cl)c2)cc1F`, 4.9%.
Compound `C/C(O)=C(\C#N)C(=O)Nc1cc(OC(C)C)c(C(=O)Nc2c(F)cccc2F)cc1F` registered an IC50 in series [2] of 36.2 nM. This compound showed an inhibition in [1] of 70.5%.
With `C/C(O)=C(\C#N)C(=O)Nc1cc(OC(C)C)c(C(=O)Nc2c(F)cccc2Cl)cc1F`, the 50% inhibitory concentration (IC50) was found to be 22.4 nM in [2]; 7300 nM in series [7]; 900 nM in series [8]; 300 nM in [3]; 2300 nM in series [9]; 1100 nM in series [10]. For the same compound, in series [11], the IC50 is 300 nM. In addition, in [1], the inhibition came to 70.7%. Also, the solubility in series [5] is 465 µg/mL (≈ 1.03 mM).
Take `COc1cc(NC(=O)/C(C#N)=C(/C)O)c(F)cc1C(=O)Nc1c(F)cccc1Cl`: in [2], the IC50 stood at 31.1 nM. The inhibition in [1] is 67.7%.
Consider `C/C(O)=C(\C#N)C(=O)Nc1cc(O[C@@H](C)C(F)(F)F)c(C(=O)Nc2c(Br)cccc2Br)cc1F`, for which the concentration for half-maximal inhibition (IC50) in series [2] stood at 7.3 nM; in [3], 35.1 nM; in [4] it was 426 nM. The compound further registered an inhibition in series [1] of 96.9%. Further, in series [5], the solubility is 2100 µg/mL (≈ 3.45 mM). For the same compound, in series [6], the selectivity ratio came to 13.1.
`C/C(O)=C(\C#N)C(=O)Nc1cc(O[C@@H](C)C(F)(F)F)c(C(=O)Nc2c(F)cccc2Br)cc1F`: the IC50 in [2] was found to be 6.8 nM; in series [3], 13.9 nM; in [4] it was 526 nM. In series [1], this compound gave an inhibition of 93.1%. Also, the solubility in [5] is 1700 µg/mL (≈ 3.1 mM). In addition, the selectivity ratio in [6] is 37.7.
Turning to `C/C(O)=C(\C#N)C(=O)Nc1cc(OC(C)C)c(C(=O)Nc2cccc(F)c2)cc1F`, in [1], the inhibition amounted to 22.1%.
As for `C/C(O)=C(\C#N)C(=O)Nc1cc(OC(C)C)c(C(=O)Nc2c(Cl)cccc2Cl)cc1F`, the IC50 in [2] turned out to be 13.1 nM; in series [3], 450 nM; in series [4], 2620 nM. In series [1], this compound showed an inhibition of 89.4%. For the same compound, the selectivity ratio in series [6] worked out at 5.8.
Consider `CCOc1cc(NC(=O)/C(C#N)=C(/C)O)c(F)cc1C(=O)Nc1c(F)cccc1Cl`, for which, in series [2], the IC50 was 44.1 nM. The same compound returned an inhibition in [1] of 63.8%.
With `COc1cccc(NC(=O)c2cc(F)c(NC(=O)/C(C#N)=C(/C)O)cc2OC(C)C)c1`, the inhibition in series [1] was found to be 21.3%.
The compound `C/C(O)=C(\C#N)C(=O)Nc1cc(OC(C)C)c(C(=O)Nc2ccccc2Br)cc1F` came in with a half-maximal inhibitory concentration (IC50) in [2] of 41.5 nM. The inhibition in [1] came out at 68.5%.
Consider `C/C(O)=C(\C#N)C(=O)Nc1cc(OC(C)C)c(C(=O)Nc2c(F)cccc2Br)cc1F`, for which the values for the half-maximal inhibitory concentration (IC50) in [2], in [3] and in series [4] were 18.2 nM, 347 nM and 2100 nM, respectively. The compound further had an inhibition in series [1] of 85.4%. In series [6], the selectivity ratio turned out to be 6.1.
As for `C/C(O)=C(\C#N)C(=O)Nc1cc(OC(C)C)c(C(=O)Nc2ccccc2F)cc1F`, the inhibition in series [1] came to 23%.
The same measure, in the same setting: under `C/C(O)=C(\C#N)C(=O)Nc1cc(OC(C)C)c(C(=O)Nc2ccc(F)cc2)cc1F` stands 7.5%.
`C/C(O)=C(\C#N)C(=O)Nc1cc(OC(C)C)c(C(=O)Nc2ccccc2Cl)cc1F` displayed an IC50 in [2] of 47.2 nM. The compound also had an inhibition in series [1] of 62.7%.
Taken in the same sequence, the figures for `COc1cc(NC(=O)/C(C#N)=C(/C)O)c(F)cc1C(=O)Nc1c(F)cccc1Br` were 29.5 nM and 78.5%.
Taken in the same sequence, the figures for `CCOc1cc(NC(=O)/C(C#N)=C(/C)O)c(F)cc1C(=O)Nc1c(F)cccc1Br` were 40 nM and 72.7%.
Take `CCOc1cc(NC(=O)/C(C#N)=C(/C)O)c(F)cc1C(=O)Nc1c(Cl)cccc1Cl`: the figures for the 50% inhibitory concentration (IC50) in series [2], in series [3] and in series [4] were 17.4 nM, 573 nM and 2710 nM, respectively. In series [1], this compound displayed an inhibition of 85.8%. The selectivity ratio in [6] came out at 4.7.
In [1], `C/C(O)=C(\C#N)C(=O)Nc1cc(F)c(C(=O)Nc2c(F)cccc2Cl)cc1F` registered an inhibition of 26.4%.
Consider `C/C(O)=C(\C#N)C(=O)Nc1cc(O[C@@H](C)C(F)(F)F)c(C(=O)Nc2c(Cl)cccc2Br)cc1F`, for which the IC50 came to 6.2 nM in series [2], 32.2 nM in [3] and 506 nM in series [4]. The compound further displayed an inhibition in series [1] of 94.4%. Moreover, in [5], the solubility came out at 2900 µg/mL (≈ 5.14 mM). Also, the selectivity ratio in series [6] is 15.8.
